This note sets out measurements from a melting point compilation (Tetko et al.; mined from patent text by program, amines drawn as free bases though some values may be those of a salt).

Where only a bound is given, the exact number is not on record here.

By melting point is commonly meant the temperature, or range, at which the solid turns liquid. `CCCCC1Cc2c(c3cccnc3n(-c3ccccc3)c2=O)O1` (centres undefined) displayed a melting point of 179 to 180 °C.

`CC1CCC(C)C1C(=O)O` (centres undefined): the melting point was determined as 45 °C.

`Nc1ccc2c(c1)CS(=O)(=O)N2CCF` came in with a melting point of 119 to 121 °C.

In turn, `CC1(C)Oc2ccc(Br)cc2C(Oc2ccnc(O)c2)C1(C)O` (centres undefined) returned a melting point of 251 to 252 °C.

In turn, `Cc1c(C)c2c(c(C)c1NCc1ccc(F)cc1)C(c1ccccc1)C(C)(C)O2` (centres undefined) showed a melting point of 93 to 95 °C.

For the molecule `O=C1C(=Cc2cccnc2)N2CCC1CC2`, the melting point was 113 °C.

The molecule `O=C(O)CC[C@H]1CC[C@H]2CN[C@H](C(=O)O)C[C@H]2C1` (racemic) displayed a melting point of 190 to 191 °C.

The molecule `CC(=O)Nc1nc2c(s1)-c1c(c(-c3c[nH]cn3)nn1-c1ccccc1C(F)(F)F)CC2` registered a melting point of over 300 °C.

The molecule `CCCc1cnc(NC(=O)C2c3ccccc3Oc3ccccc32)o1` returned a melting point of 203 to 205 °C.

In turn, `CCN1CC(NC(=O)c2cc(Cl)c(N)cc2OC)C=N1` (centres undefined) had a melting point of 132 to 134 °C.

Consider `CN1C2CCC1CC(c1n[nH]c3ccccc13)C2` (centres undefined), for which the melting point lay in the range of 191 to 192 °C.

Molecule `COc1ccc(/C=C/C(=O)N(C)CC(O)CO)cc1` (centres undefined) came in with a melting point of 81 to 83 °C.

`O=C(CCS)N[C@@H](Cc1ccc(O)c(O)c1)C(=O)O` came in with a melting point of 89 to 91 °C.

`CCCCC(NS(=O)(=O)c1ccc(Cl)cc1)C(=S)Nc1ccc(CC(=O)OCC)cc1` (racemic) gave a melting point of 70 to 73 °C.

`O=C(OCC1CCCCO1)c1ccccc1Nc1ccnc2cc(Cl)ccc12` (centres undefined) returned a melting point of 93 to 94 °C.

`Cc1nn(-c2c(Cl)cc(C(F)(F)F)cc2Cl)cc1C#C[Si](C)(C)C` came in with a melting point of 76 to 78 °C.

In the case of `Cc1nc(N)ncc1-c1ccncc1`, the melting point is 215 to 217 °C.

In the case of `CCC(=O)Nc1ccc(C)c(O)c1C`, the melting point was determined as 140 °C.

For `COC(=O)c1cc(Br)c(O)c(Br)n1`, the melting point lay in the range of 148 to 150 °C.

`C=CCN1CCC23c4c5ccc(O)c4OC2C(=NO)CCC3(O)C1C5` (centres undefined) returned a melting point of 119 °C.

In the case of `O=Cc1cccc2oc3ccccc3c12`, the melting point was in the range of 66 to 68 °C.

Consider `COc1cc(C(=O)O)ccc1Cc1cn(CCC(N)=O)c2ccc(C(=O)NCC3CCCC3)cc12`, for which the melting point is 129 to 131 °C.

`COc1ccc(CNc2n[nH]cc2C(N)=O)cc1OC1CCCC1` came in with a melting point of 128 to 130 °C.

As for `O=C1NCc2c(-c3ccccc3)cccc2N1C1CCCCC1`, the melting point lay in the range of 229 to 231 °C.

The molecule `CNC1=NN(c2ccc(Cl)c(Cl)c2)CC1` showed a melting point of 68 to 70 °C.

As to `CNc1cccc(OC)c1N`, the melting point lay in the range of 60 to 61 °C.

Take `CS(=O)(=O)Nc1ccc(/C=C\COCCCCCCO)cc1`: the melting point is 65 to 67 °C.

As to `CC(C)N(CCC(C(N)=O)(c1ccc(O)cc1)c1ccccn1)C(C)C` (centres undefined), the melting point fell in the range of 148 to 151 °C.

Consider `CCCCCCCCCCCCOC(=O)c1cc(N)ccc1[N+](=O)[O-]`, for which the melting point was 58 to 59 °C.

In the case of `Cc1ccn(-c2cc(Nc3c(Cl)cc(Cl)cc3Cl)nc(C)n2)n1`, the melting point lay in the range of 245 to 247 °C.

`NC(=O)c1ccc(N2CCNCC2)cc1` yielded a melting point of 240 to 243 °C.

The molecule `CCOc1cc2ncc(C#N)c(Nc3cccc(Br)c3)c2cc1OCC` came in with a melting point of 173 to 175 °C.

In the case of `Cc1ccc(Sc2cc([N+](=O)[O-])cc3c2C(=O)OC3=O)cc1`, the melting point lay within 180 to 182 °C.

The molecule `O=C(NCCCn1cncn1)Nc1ccc(Cl)cc1` returned a melting point of 137 to 139 °C.

Regarding `Clc1ccc2cc(OC3CCCCO3)ccc2n1` (centres undefined), the melting point lay within 122 to 124 °C.

Consider `C[C@]1(CN2CCN(S(=O)(=O)CCCc3ccc(Cl)cc3)CC2)Cn2cc([N+](=O)[O-])nc2O1`, for which the melting point fell in the range of 150 to 151 °C.

In turn, `Cc1ncccc1OCC1(c2onc(-c3ccc(O)cc3)c2-c2ccccc2)CC1` yielded a melting point of 194 to 195 °C.

`CS(=O)(=O)OCC1(c2ccccc2)CCCC1` registered a melting point of 55 to 60 °C.

Molecule `COC1(c2cc(F)cc(OCc3ccc(N(C)S(C)(=O)=O)c(Cl)c3)c2)CCOCC1` came in with a melting point of 126 to 128 °C.

On to `Cc1cccc(N(C)C(=S)Oc2ccc(Cl)c(C)c2)n1`, for which the melting point fell in the range of 134 to 136 °C.

As for `O=C1NC(=O)C(=Cc2cc(O)c(O)c([N+](=O)[O-])c2)S1`, the melting point lay in the range of 295 to 298 °C.

In the case of `O=C(NC1CCCCC1)c1ccc(CCN2CC=C(c3c[nH]c(-c4ccc(F)cc4)c3-c3ccncc3)CC2)cc1`, the melting point fell in the range of 243 to 245 °C.

The molecule `O=c1n(CCCN2CCC(c3c[nH]c4ccccc34)CC2)nc2ccccn12` registered a melting point of 112 °C.

`O[C@@H]1CN(Cc2ccccc2)C[C@H]1Sc1ccccc1` (relative stereo) came in with a melting point of 97 to 99 °C.

Consider `C=CCN1CCCN(c2cc(Cl)ccc2C)C1=S`, for which the melting point fell in the range of 71 to 72 °C.

Molecule `COC(=O)c1snc(-c2ccc(Cl)c(Cl)c2)c1C(=O)OC` showed a melting point of 105 to 107 °C.

As to `FC(F)(F)c1cccc(C(NC2=NCCO2)C(F)(F)F)c1` (centres undefined), the melting point was 129 to 132 °C.

`CCOP(=O)(CNC(Cc1ccc(Cl)cc1)c1cc(C(C)(C)C)c(O)c(C(C)(C)C)c1)OCC` (centres undefined) gave a melting point of 120 to 121 °C.

On to `O=CC(=Cc1ccc([N+](=O)[O-])s1)c1ccc(Br)cc1`, for which the melting point lay within 105 to 108 °C.

With `CC1CC(NCC(F)(F)F)=NN1c1ccc(Cl)cc1` (centres undefined), the melting point lay within 63 to 64 °C.

Molecule `CC[C@H](C)[C@H](OCc1cc(F)cc(F)c1)[C@H]1[C@H]([N+](=O)[O-])[C@H](c2ccccc2)N[C@@H]1C(=O)NCC(=O)O` registered a melting point of 140 to 141 °C.

Regarding `CC1(C)C2CCC1(C)C(O)(c1ccccc1)C2` (centres undefined), the melting point lay in the range of 41 to 42 °C.

In turn, `FC(F)(F)Oc1ccc(/C=C/c2ccc(CBr)cc2)cc1` yielded a melting point of 100 to 102 °C.

`COc1cc(Nc2c(C#N)cnc3cc(C#Cc4ccncc4)sc23)c(Cl)cc1Cl`: the melting point was 221 to 223 °C.

Regarding `Nc1nc2[nH]c(CCCCC#Cc3ccc(C(=O)N[C@@H](CCC(=O)O)C(=O)O)s3)cc2c(=O)[nH]1`, the melting point is 197 to 198 °C.

With `COCNC(=O)C1C(c2ccc(F)cc2)CC2CCC1N2C` (centres undefined), the melting point was in the range of 140 to 142 °C.

The molecule `CCOC(=O)Cc1c(C)ncnc1O` returned a melting point of 148 to 149 °C.

The molecule `CCc1cc2c(NCCc3ccccc3)ccnc2s1` yielded a melting point of 88 °C.

For `Cc1ccc(-c2c(CNC(=O)OC(C)(C)C)n(CC(C)C)c(=O)c3ccc(/C=C/C(=O)O)cc23)cc1`, the melting point lay in the range of 171 to 173 °C.

As for `CC(=O)c1cnc2c(cnn2Cc2ccco2)c1O`, the melting point lay within 108 to 110 °C.

`CC#CCOc1ccc(SC(C(=O)NO)c2ccc(OC)cc2)cc1` (centres undefined) gave a melting point of 156 °C.

For the molecule `COc1ccc(CNC(=O)c2nc3scc(COCc4ccc(C(=O)O)cc4)c3c(=O)[nH]2)cc1`, the melting point lay within 271 to 273 °C.

`Cc1[nH]c2cc3c(cc2c1-c1ccccc1)C(C)(C)C=N3` had a melting point of 233 to 235 °C.

`Oc1cccc2c1CCC2N1CCCCC1` (centres undefined): the melting point lay within 134 to 136 °C.

As to `CCCc1ccnc2c(=O)[nH]c(-c3cc(S(=O)(=O)NCCN4CCOCC4)ccc3OCC)nc12`, the melting point was 165 to 166 °C.

As to `CC(C)c1ccc(N(Cc2ccc(N(C)C)cc2)C(=O)C2CCOc3ccccc32)cc1` (centres undefined), the melting point was 110 to 112 °C.

In turn, `CNS(=O)(=O)c1ccccc1Nc1nc(Nc2ccc3c(c2)CCCC(=O)N3)ncc1Cl` gave a melting point of 276 to 282 °C.

Molecule `CCOC(=O)c1ccc(-n2cnnc2S)cc1` showed a melting point of 194 to 196 °C.

The molecule `O=[N+]([O-])c1cccc2c1ncn2-c1cccc(Br)c1` displayed a melting point of 180 to 182 °C.

In turn, `CC(=O)c1cn(C)c2ccc(C)cc12` had a melting point of 119 to 121 °C.

As to `O=c1[nH]nc2n1-c1ccc(Cl)nc1C(c1ccccc1)=NC2`, the melting point was 222 to 224 °C.

Molecule `COC(C)(CN(c1c(C)cccc1Cl)S(C)(=O)=O)OC` had a melting point of 84 °C.

Consider `CNc1cc(C(=O)O)ccc1C`, for which the melting point lay in the range of 167 to 169 °C.

Molecule `Cc1cccc(C)c1N1CCN(CCNc2c(Cl)cnn(C)c2=O)CC1` showed a melting point of 225 to 232 °C.

`CC(C)(C)c1ccc(CN2CCNC2=O)cc1` registered a melting point of 122 to 127 °C.

For the molecule `Nc1ccc(-c2nc3c(F)cccc3s2)cc1`, the melting point lay in the range of 219 to 221 °C.

Take `CCCCc1nc(Cl)c(CO)n1Cc1ccc(Oc2ccccc2C(=O)O)cc1`: the melting point lay within 178 to 180 °C.

For the molecule `N#CCC(=O)Nc1ccnn1-c1c(Cl)cc(C(F)(F)F)cc1Cl`, the melting point was in the range of 169 to 175 °C.

`C=C(C)c1ccc(O)cc1` came in with a melting point of 167 to 168 °C.

Take `Cc1cccc(N2CC(=O)NC(=O)N2)c1`: the melting point lay in the range of 245 to 247 °C.

With `Cc1ccc(C=Cc2ccccc2)cc1C`, the melting point was determined as 76 °C.

As to `NC(=O)[C@@H]1[C@H](Nc2c(Br)cnc3[nH]c(-c4ccc(CN5CCOCC5)cc4)nc23)[C@H]2C=C[C@@H]1C2`, the melting point lay in the range of 217 to 219 °C.

In turn, `O=C1CCCC1Oc1cccc2onc(OCC3CCN(CC4(O)CCOCC4)CC3)c12` (centres undefined) displayed a melting point of 133 °C.

Turning to `CC#COc1cccc2oc3ccccc3c(=O)c12`, the melting point lay within 168 to 169 °C.

`COc1ccc2cncc(CCl)c2c1` yielded a melting point of 256 to 257 °C.

In the case of `Nc1cc(=O)n(Cc2ccc(Cl)c(C(F)(F)F)c2)[nH]1`, the melting point came out at 132 °C.

In turn, `CN(C)C(=S)Oc1ccc(C(=O)c2cccc(C#N)c2)cc1` had a melting point of 160 °C.

`CC1=C(C(=O)OCCN(C)Cc2ccccc2)C(c2cccc([N+](=O)[O-])c2)c2c(N)nc(N)nc2N1` (centres undefined) returned a melting point of 162 °C.

`CC(C)(CO)NCCCn1ccnc1` registered a melting point of 81 to 85 °C.

As for `Oc1c(-c2ccccc2)cc(C2c3ccccc3-c3ccccc32)cc1-c1ccccc1`, the melting point fell in the range of 144 to 145 °C.

Take `Cc1nc(Cl)c2c(-c3ccc([N+](=O)[O-])o3)nn(C)c2n1`: the melting point came to 212 °C.

In the case of `FC(F)(F)c1nc2nc(Cl)c(Cl)cc2[nH]1`, the melting point was in the range of 222 to 224 °C.

`CC12CCCC1C1=CCc3cc(O)ccc3C1CC2` (centres undefined) had a melting point of 130 to 134 °C.

As to `CCCN(CCC)CCc1ccc(OC)c2[nH]c(=O)[nH]c12`, the melting point stood at 35 °C.
